Test results reported in article PMC12299168 (Pharmaceutics, 2025).
Read-outs that look alike come from different tables or passages of the source.

Tests used:
[1] = system: flare and wheal suppression; conditions: children aged 6–11 years; cited from earlier work
[2] = system: porcine liver esterase (PLE); experiment: Hydrolysis of prodrug in porcine liver esterase (PLE); format: in vitro ADME; conditions: for first-order rate constant (kobs): during 6 h; for half-life at 0.25 mg/mL (LCZ 2HCl Eq.): pig, porcine liver esterase (PLE) solution, 10% DMSO, 37 °C, read-out: T1/2 (time required for 50% degradation of prodrug) (converted)
Method: The ester bond cleavage assay was adapted from reference, with minor modifications, and carried out using PLE to evaluate the hydrolytic ratio (n = 3). […] At 0, 1, 2, 4, 6 and 24 h, the aliquot (100 μL) was collected using a 28 G syringe, and then immediately diluted 10-fold with a solvent composed of Acetonitrile:DW = 90:10 (v/v) to stop enzymatic action. The elution was replenished with an equal concentration and volume of fresh esterase solution. The diluted samples were filtered through a double 0.45 μm PTFE syringe filter. The filtrates were analyzed for their prodrug and LCZ content by HPLC to determine the conversion of the prodrug to LCZ.
(§1) Esterase, plasma hydrolysis and chemical stability studies were performed using the HPLC method. The HPLC equipment used was Infinity 1260 (Agilent, CA) fitted with a quaternary pump, an autosampler, a UV detector set at a wavelength of 230 nm and a column compartment maintained at 20 °C. The sample was eluted from a Fortis C18 (150 × 4.6 mm, 5 μm particle size) (Fortis, Neston, UK) analytical column using Acetonitrile:distilled water:sulfuric acid (90:9.6:0.4, v/v). The mobile phase was pumped isocratically at a flow rate of 1 mL/min with a 20 μL injection volume.

[3] = Hydrolysis of prodrugs in rat plasma; format: in vitro ADME; conditions: 37 °C, during 6 h
Method: First, 100 μL of stock solution was added to 3.9 mL of heparinized rat plasma (n = 3). The samples were incubated at 37 °C in a shaking chamber (100 rpm). At 0, 1, 2, 4, 6 and 24 h, the aliquot (100 μL) was collected, and then immediately diluted 10-fold with a solvent composed of Acetonitrile:DW = 90:10 (v/v) to precipitate the protein. An equal volume of fresh rat plasma was replenished after each sampling. The samples were centrifuged at 5000 rpm for 10 min and the supernatants were filtered through a double 0.45 μm PTFE syringe filter. The filtrates were analyzed for their prodrug and LCZ content by HPLC to determine the conversion of the prodrug to LCZ.
as §1

Compound | EC50 for flare suppression [1] [ng/mL] | EC50 for wheal suppression [1] [ng/mL] | first-order rate constant (kobs) ([2]; PLE 0.2 units/mL) [h⁻¹] | first-order rate constant (kobs) ([2]; PLE 0.5 units/mL) [h⁻¹] | first-order rate constant (kobs) ([2]; PLE 2.0 units/mL) [h⁻¹] | half-life at 0.25 mg/mL (LCZ 2HCl Eq.) ([2]; PLE 0.2 unit/mL) [h] | half-life at 0.25 mg/mL (LCZ 2HCl Eq.) ([2]; PLE 0.5 unit/mL) [h] | half-life at 0.25 mg/mL (LCZ 2HCl Eq.) ([2]; PLE 2.0 unit/mL) [h] | first-order rate constant (kobs) [3] [h⁻¹]
O=C(O)COCCN1CCN([C@H](c2ccccc2)c2ccc(Cl)cc2)CC1 [LCZ, Levocetirizine] | 1.4 ± 0.1 | 16.1 ± 2.2 | – | – | – | – | – | – | –
CCCCCCCCCCOC(=O)COCCN1CCN([C@@H](c2ccccc2)c2ccc(Cl)cc2)CC1 [LCZ-D, Levocetirizine decanoate] | – | – | 0.201 | 0.253 | 0.580 | 4 | 3 | ~1 | 0.229
CCCCCCCCCCCCOC(=O)COCCN1CCN([C@@H](c2ccccc2)c2ccc(Cl)cc2)CC1 [LCZ-L, Levocetirizine laurate] | – | – | 0.127 | 0.165 | 0.498 | 5 | 4 | ~2 | 0.157
